According to patent US12303505B2, “Tumor-treating pharmaceutical composition” (Eisai R&D Management Co., Ltd., priority 2017, dated 2025):
Counter-ions that a name gives are not always drawn.

Tests used:
Type in all cases: in vivo
[1] = test system: human anaplastic thyroid cancer cell line HTC/C3; experiment: Antitumor effect in human anaplastic thyroid cancer cell line HTC/C3 transplantation model, nude mice
Protocol: A human anaplastic thyroid cancer cell line HTC/C3 (JCBR Cell Bank) was cultured by using D-MEM High Glucose medium (Wako Pure Chemical Industries, Ltd.) containing 10% FBS in a 5% CO2 incubator under conditions of 37° C. When the cells became an approximately 80% confluent state, the cells were recovered by using trypsin-EDTA. A suspension was prepared by adding Hank's balanced salt solution containing 50% Matrigel to the cells so as to be 1.0×10^7 cells/mL. 0.1 mL of the obtained cell suspension was subcutaneously transplanted to the sides of the bodies of five nude mice (CAnN.Cg-Foxn1^nu/CrlCrlj, Charles River Laboratories Japan, Inc.) each of a control group, an E7386 12.5, 25 or 50 mg/kg alone administration group, a lenvatinib mesylate 10 mg/kg alone administration group, and a combined administration group of 12.5, 25 or 50 mg/kg E7386 and 10 mg/kg lenvatinib mesylate. From 11 days after the transplantation, E7386 (12.5, 25, or 50 mg/kg, b.d.s., 14 days, oral administration) and lenvatinib mesylate (10 mg/kg, q.d., 14 days, oral administration) were administered alone or in combination to the alone administration group or the combined administration group. For the administration, E7386 was dissolved in 0.1 mol/L hydrochloric acid, and lenvatinib mesylate was dissolved in 3 mmol/L hydrochloric acid. 0.1 mol/L hydrochloric acid (b.d.s., 14 days) was administered to the control group.
When the start day of administration was defined as day 1, the major axis and minor axis of tumor developed in each mouse were then measured at day 4, day 8, day 11, and day 15 by using Digimatic Caliper (Mitutoyo Corp.).
(§1) The tumor volume and the relative tumor volume (RTV) were calculated according to the following expressions. Tumor volume (mm^3)=Tumor major axis (mm)×Tumor minor axis^2 (mm^2)/2 Relative tumor volume (RTV)=Tumor volume at the measurement day/Tumor volume at the start day of administration

[2] = test system: Human colorectal cancer line Colo-205 cells; experiment: Antitumor effect in human colorectal cancer line Colo-205 transplantation model, nude mice
Protocol: Human colorectal cancer line Colo-205 cells (ATCC) were cultured by using RPMI1640 medium (Wako Pure Chemical Industries, Ltd.) containing 10% FBS in a 5% CO2 incubator under conditions of 37° C. When the cells became an approximately 80% confluent state, the cells were recovered by using trypsin-EDTA. A suspension was prepared by adding Hank's balanced salt solution to the cells so as to be 5.0×10^7 cells/mL. 0.1 mL of the obtained cell suspension was subcutaneously transplanted to the sides of the bodies of five nude mice (CAnN.Cg-Foxn1^nu/CrlCrlj, Charles River Laboratories Japan, Inc.) each of a control group, an E7386 50 mg/kg alone administration group, a lenvatinib mesylate 10 mg/kg alone administration group, and a combined administration group of 50 mg/kg E7386 and 10 mg/kg lenvatinib mesylate. From 8 days after the transplantation, E7386 (50 mg/kg, q.d., 11 days, oral administration) and lenvatinib mesylate (10 mg/kg, q.d., 11 days, oral administration) were administered alone or in combination to the alone administration group or the combined administration group. For the administration, E73 86 was dissolved in 0.1 mol/L hydrochloric acid, and lenvatinib mesylate was dissolved in 3 mmol/L hydrochloric acid. Any drug was not administered to the control group.
When the start day of administration was defined as day 1, the major axis and minor axis of tumor developed in each mouse were then measured at day 4, day 8, and day 12 by using Digimatic Caliper (Mitutoyo Corp.).
as §1

[3] = test system: Human renal cell carcinoma line A-498 cells; experiment: Antitumor effect in human renal cell carcinoma line A-498 subcutaneous transplantation model, nude mice
Protocol: Human renal cell carcinoma line A-498 cells (ATCC) were cultured by using RPMI1640 medium (Wako Pure Chemical Industries, Ltd.) containing 10% FBS in a 5% COz incubator under conditions of 37° C. When the cells became an approximately 100% confluent state, the cells were recovered by using trypsin-EDTA. A suspension was prepared by adding RPMI1640 medium containing 50% Matrigel to the cells so as to be 5.0×10^7 cells/mL. 0.1 mL of the obtained cell suspension was subcutaneously transplanted to the sides of the bodies of six nude mice (CAnN.Cg-Foxn1^nu/CrlCrlj, Charles River Laboratories Japan, Inc.) each of a control group, an E7386 50 mg/kg alone administration group, a lenvatinib mesylate 10 mg/kg alone administration group, and a combined administration group of 50 mg/kg E7386 and 10 mg/kg lenvatinib mesylate. From 27 days alter the transplantation, E7386 (50 mg/kg, q.d., 14 days, oral administration) and lenvatinib mesylate (10 mg/kg, q.d, 14 days, oral administration) were administered alone or in combination to the alone administration group or the combined administration group. For the administration, E7386 was dissolved in 0.1 mol/L hydrochloric acid, and lenvatinib mesylate was dissolved in 3 mmol/L hydrochloric acid. Any drug was not administered to the control group.
When the start day of administration was defined as day 1, the major axis and minor axis of tumor developed in each mouse were then measured at day 5, day 8, day 12, and day 15 by using Digimatic Caliper (Mitutoyo Corp.).
as §1

[4] = Day 4, lenvatinib mesylate 10 mg/kg q.d. oral alone
[5] = Day 8, lenvatinib mesylate 10 mg/kg q.d. oral alone
[6] = Day 15, lenvatinib mesylate 10 mg/kg q.d. oral alone
[7] = Day 12, lenvatinib mesylate 10 mg/kg q.d. oral alone
[8] = Day 8, E7386 50 mg/kg q.d. oral alone
[9] = Day 12, E7386 50 mg/kg q.d. oral alone

With `COc1cc2nccc(Oc3ccc(NC(=O)NC4CC4)c(Cl)c3)c2cc1C(N)=O` [Lenvatinib mesylate, 4-(3-chloro-4-(cyclopropylaminocarbonyl)aminophenoxy)-7-methoxy-6-quinolinecarboxamide, reference compound] the “Relative tumor volume (RTV), mean±SD” value [1, 4] was 1.71 ± 0.10, the “Relative tumor volume (RTV), mean±SD” value [1, 5] was 3.57 ± 0.54 and the “Relative tumor volume (RTV), mean±SD” value ([1]; Day 11, lenvatinib mesylate 10 mg/kg q.d. oral alone) was 5.15 ± 1.07. For the same compound, the “Relative tumor volume (RTV), mean±SD” value [1, 6] was 6.23 ± 1.71, the “Relative tumor volume (RTV), mean±SD” value [2, 4] was 1.41 ± 0.30 and the “Relative tumor volume (RTV), mean±SD” value [2, 5] was 1.75 ± 0.13. The “Relative tumor volume (RTV), mean±SD” value [2, 7] was 1.94 ± 0.31, the “Relative tumor volume (RTV), mean±SD” value ([3]; Day 5, lenvatinib mesylate 10 mg/kg q.d. oral alone) was 1.08 ± 0.18 and the “Relative tumor volume (RTV), mean±SD” value [3, 5] was 1.35 ± 0.25. The “Relative tumor volume (RTV), mean±SD” value [3, 7] was 1.21 ± 0.18 and the “Relative tumor volume (RTV), mean±SD” value [3, 6] was 1.20 ± 0.21.
For `C=CCN1CC(=O)N2[C@@H](Cc3ccc(O)cc3F)C(=O)N(Cc3cccc(N4CC(N5CCN(CC)CC5)C4)n3)C[C@@H]2N1C(=O)NCc1ccccc1` [E7386, (6S,9aS)—N-Benzyl-8-({6-[3-(4-ethylpiperazin-1-yl)azetidin-1-yl]pyridin-2-yl}methyl)-6-(2-fluoro-4-hydroxybenzyl)-4,7-dioxo-2-(prop-2-en-1-yl)hexahydro-2H-pyrazino[2,1-c][1,2,4]triazine-1(6H)-carboxamide], the “Relative tumor volume (RTV), mean±SD” value ([1]; Day 4, E7386 12.5 mg/kg b.d.s. oral alone) was 1.68 ± 0.13, the “Relative tumor volume (RTV), mean±SD” value ([1]; Day 4, E7386 25 mg/kg b.d.s. oral alone) was 1.72 ± 0.10 and the “Relative tumor volume (RTV), mean±SD” value ([1]; Day 4, E7386 50 mg/kg b.d.s. oral alone) was 1.74 ± 0.09. The “Relative tumor volume (RTV), mean±SD” value ([1]; Day 8, E7386 12.5 mg/kg b.d.s. oral alone) was 4.02 ± 0.40, the “Relative tumor volume (RTV), mean±SD” value ([1]; Day 8, E7386 25 mg/kg b.d.s. oral alone) was 3.99 ± 0.62 and the “Relative tumor volume (RTV), mean±SD” value ([1]; Day 8, E7386 50 mg/kg b.d.s. oral alone) was 4.00 ± 0.66. The “Relative tumor volume (RTV), mean±SD” value ([1]; Day 11, E7386 12.5 mg/kg b.d.s. oral alone) was 6.27 ± 0.93, the “Relative tumor volume (RTV), mean±SD” value ([1]; Day 11, E7386 25 mg/kg b.d.s. oral alone) was 6.44 ± 1.09 and the “Relative tumor volume (RTV), mean±SD” value ([1]; Day 11, E7386 50 mg/kg b.d.s. oral alone) was 5.85 ± 1.42. The “Relative tumor volume (RTV), mean±SD” value ([1]; Day 15, E7386 12.5 mg/kg b.d.s. oral alone) was 8.58 ± 2.48, the “Relative tumor volume (RTV), mean±SD” value ([1]; Day 15, E7386 25 mg/kg b.d.s. oral alone) was 8.81 ± 2.14 and the “Relative tumor volume (RTV), mean±SD” value ([1]; Day 15, E7386 50 mg/kg b.d.s. oral alone) was 7.83 ± 2.28. For the same compound, the “Relative tumor volume (RTV), mean±SD” value ([2]; Day 4, E7386 50 mg/kg q.d. oral alone) was 1.98 ± 0.24, the “Relative tumor volume (RTV), mean±SD” value [2, 8] was 3.87 ± 0.74 and the “Relative tumor volume (RTV), mean±SD” value [2, 9] was 4.94 ± 1.41. For the same compound, the “Relative tumor volume (RTV), mean±SD” value ([3]; Day 5, E7386 50 mg/kg q.d. oral alone) was 1.33 ± 0.24, the “Relative tumor volume (RTV), mean±SD” value [3, 8] was 1.70 ± 0.26 and the “Relative tumor volume (RTV), mean±SD” value [3, 9] was 2.04 ± 0.29. The “Relative tumor volume (RTV), mean±SD” value ([3]; Day 15, E7386 50 mg/kg q.d. oral alone) was 2.29 ± 0.33.
